Source: PubChem BioAssay (NCI)
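Protocol summary: plate cells (96-well), add compound at 5 concentrations, incubate 48 h, interpolate endpoints linearly. At the TGI there is no net growth.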

Tested on: EKVX NSCLC
Test: NCI anticancer screen, dose series, 48 h

| Structure (SMILES) | TGI |
| --- | --- |
| C=CCC1(O)CC(n2cc(C)c(=O)[nH]c2=O)OC1CO[Si](C)(C)C(C)(C)C (stereo not drawn) | > 100 µM |
| NC(=O)C(=CNC(N)=S)C(N)=O | > 100 µM |

Tested on: K-562 leukemia
Test: NCI anticancer screen, dose series, 48 h

| Structure (SMILES) | TGI |
| --- | --- |
| CCCN(CCC)CCc1ccc(OC2=CCN(C)CC2)cc1 | > 100 µM |
| O=C1OCN(c2ccccc2)C12CCN(Cc1ccccc1)CC2 | 24.1 µM |
| Cn1c2ccc([N+](=O)[O-])cc2c(=O)n1Cc1ccccc1F | > 100 µM |
| Cn1c(=O)c2c3ccccc3n(C)c2n(C)c1=O | > 100 µM |
| CN(Cc1cnc2nc(N)nc(N)c2n1)c1ccc(C(=O)NCCS(=O)(=O)O)cc1 | > 100 µM |
| COc1cc(NC(C)c2ccc3c(c2)OCCO3)cc(OC)c1OC (stereo not drawn) | > 100 µM |
| Cc1cccc2oc3c(CC(=O)O)cccc3c(=O)c12 | > 100 µM |
| N#CC(C#N)=C1C(=Cc2ccc(OCCCCCCCCCCSSCCCCCCCCCCOc3ccc(C=C4C(=C(C#N)C#N)c5ccccc5C4=C(C#N)C#N)cc3)cc2)C(=C(C#N)C#N)c2ccccc21 | 60.4 µM |
| O=c1c2cccnc2n2n1Cc1ccccc1C2 | > 100 µM |
| S=c1nc2sc3c(c2c(Nc2ccc(Cl)cc2)[nH]1)CCCC3 | > 100 µM |
| CSC1=C(C#N)C(=S)N=C(N)C1C(=O)Nc1ccc(C)cc1 (stereo not drawn) | > 100 µM |
| O=c1ccn([C@@H]2C[C@H]2CO)c(=O)[nH]1 | > 100 µM |
| C=C(C)[C@@H]1CCC2=C[C@@H](OC2=O)[C@@H](C(=C)C)C2=CC(C(=O)O)=C(C1)O2 | > 100 µM |
| CSC(=N/C=C/c1ccccc1)SC | > 100 µM |
| c1ccc(C(C2=Nc3cccc4cccc(c34)N2)c2ccccc2)cc1 | 81.7 µM |
| COC(=O)NC(Nc1ccccn1)(C(F)(F)F)C(F)(F)F | > 100 µM |
| O=C(OCc1ccccc1)N(CCCCN(CCCNC(=O)C(F)(F)F)C(=O)OCc1ccccc1)CCCNC(=O)C(F)(F)F | > 100 µM |
| Nc1ncc(Br)c(NCC2(CO)CCC2)n1 | > 100 µM |
| C=CCC1(O)CC(n2cc(C)c(=O)[nH]c2=O)OC1CO[Si](C)(C)C(C)(C)C (stereo not drawn) | > 100 µM |
| NC(=O)C(=CNC(N)=S)C(N)=O | > 100 µM |

Tested on: MALME-3M melanoma
Test: NCI anticancer screen, dose series, 48 h

| Structure (SMILES) | TGI |
| --- | --- |
| CCCN(CCC)CCc1ccc(OC2=CCN(C)CC2)cc1 | 32.4 µM |
| O=C1OCN(c2ccccc2)C12CCN(Cc1ccccc1)CC2 | 43.8 µM |
| Cn1c2ccc([N+](=O)[O-])cc2c(=O)n1Cc1ccccc1F | > 100 µM |
| Cn1c(=O)c2c3ccccc3n(C)c2n(C)c1=O | > 100 µM |
| CN(Cc1cnc2nc(N)nc(N)c2n1)c1ccc(C(=O)NCCS(=O)(=O)O)cc1 | > 100 µM |
| COc1cc(NC(C)c2ccc3c(c2)OCCO3)cc(OC)c1OC (stereo not drawn) | 67.8 µM |
| Cc1cccc2oc3c(CC(=O)O)cccc3c(=O)c12 | > 100 µM |
| O=c1c2cccnc2n2n1Cc1ccccc1C2 | > 100 µM |
| S=c1nc2sc3c(c2c(Nc2ccc(Cl)cc2)[nH]1)CCCC3 | > 100 µM |
| CSC1=C(C#N)C(=S)N=C(N)C1C(=O)Nc1ccc(C)cc1 (stereo not drawn) | > 100 µM |
| O=c1ccn([C@@H]2C[C@H]2CO)c(=O)[nH]1 | > 100 µM |
| C=C(C)[C@@H]1CCC2=C[C@@H](OC2=O)[C@@H](C(=C)C)C2=CC(C(=O)O)=C(C1)O2 | > 100 µM |
| CSC(=N/C=C/c1ccccc1)SC | > 100 µM |
| c1ccc(C(C2=Nc3cccc4cccc(c34)N2)c2ccccc2)cc1 | 73.3 µM |
| COC(=O)NC(Nc1ccccn1)(C(F)(F)F)C(F)(F)F | > 100 µM |
| Nc1ncc(Br)c(NCC2(CO)CCC2)n1 | > 100 µM |
| NC(=O)C(=CNC(N)=S)C(N)=O | > 100 µM |

Tested on: OVCAR-8 ovarian
Test: NCI anticancer screen, dose series, 48 h

| Structure (SMILES) | TGI |
| --- | --- |
| CCCN(CCC)CCc1ccc(OC2=CCN(C)CC2)cc1 | > 100 µM |
| O=C1OCN(c2ccccc2)C12CCN(Cc1ccccc1)CC2 | > 100 µM |
| Cn1c2ccc([N+](=O)[O-])cc2c(=O)n1Cc1ccccc1F | > 100 µM |
| Cn1c(=O)c2c3ccccc3n(C)c2n(C)c1=O | > 100 µM |
| CN(Cc1cnc2nc(N)nc(N)c2n1)c1ccc(C(=O)NCCS(=O)(=O)O)cc1 | > 100 µM |
| COc1cc(NC(C)c2ccc3c(c2)OCCO3)cc(OC)c1OC (stereo not drawn) | > 100 µM |
| Cc1cccc2oc3c(CC(=O)O)cccc3c(=O)c12 | > 100 µM |
| N#CC(C#N)=C1C(=Cc2ccc(OCCCCCCCCCCSSCCCCCCCCCCOc3ccc(C=C4C(=C(C#N)C#N)c5ccccc5C4=C(C#N)C#N)cc3)cc2)C(=C(C#N)C#N)c2ccccc21 | > 100 µM |
| O=c1c2cccnc2n2n1Cc1ccccc1C2 | > 100 µM |
| CSC1=C(C#N)C(=S)N=C(N)C1C(=O)Nc1ccc(C)cc1 (stereo not drawn) | > 100 µM |
| O=c1ccn([C@@H]2C[C@H]2CO)c(=O)[nH]1 | > 100 µM |
| C=C(C)[C@@H]1CCC2=C[C@@H](OC2=O)[C@@H](C(=C)C)C2=CC(C(=O)O)=C(C1)O2 | > 100 µM |
| CSC(=N/C=C/c1ccccc1)SC | > 100 µM |
| c1ccc(C(C2=Nc3cccc4cccc(c34)N2)c2ccccc2)cc1 | > 100 µM |
| COC(=O)NC(Nc1ccccn1)(C(F)(F)F)C(F)(F)F | > 100 µM |
| O=C(OCc1ccccc1)N(CCCCN(CCCNC(=O)C(F)(F)F)C(=O)OCc1ccccc1)CCCNC(=O)C(F)(F)F | > 100 µM |
| Nc1ncc(Br)c(NCC2(CO)CCC2)n1 | > 100 µM |
| C=CCC1(O)CC(n2cc(C)c(=O)[nH]c2=O)OC1CO[Si](C)(C)C(C)(C)C (stereo not drawn) | > 100 µM |
| NC(=O)C(=CNC(N)=S)C(N)=O | > 100 µM |

Tested on: COLO 205 colon
Test: NCI anticancer screen, dose series, 48 h

| Structure (SMILES) | TGI |
| --- | --- |
| CCCN(CCC)CCc1ccc(OC2=CCN(C)CC2)cc1 | > 100 µM |
| O=C1OCN(c2ccccc2)C12CCN(Cc1ccccc1)CC2 | 39.6 µM |
| Cn1c2ccc([N+](=O)[O-])cc2c(=O)n1Cc1ccccc1F | > 100 µM |
| Cn1c(=O)c2c3ccccc3n(C)c2n(C)c1=O | > 100 µM |
| CN(Cc1cnc2nc(N)nc(N)c2n1)c1ccc(C(=O)NCCS(=O)(=O)O)cc1 | > 100 µM |
| COc1cc(NC(C)c2ccc3c(c2)OCCO3)cc(OC)c1OC (stereo not drawn) | 71.8 µM |
| Cc1cccc2oc3c(CC(=O)O)cccc3c(=O)c12 | > 100 µM |
| S=c1nc2sc3c(c2c(Nc2ccc(Cl)cc2)[nH]1)CCCC3 | > 100 µM |
| CSC1=C(C#N)C(=S)N=C(N)C1C(=O)Nc1ccc(C)cc1 (stereo not drawn) | > 100 µM |
| O=c1ccn([C@@H]2C[C@H]2CO)c(=O)[nH]1 | > 100 µM |
| C=C(C)[C@@H]1CCC2=C[C@@H](OC2=O)[C@@H](C(=C)C)C2=CC(C(=O)O)=C(C1)O2 | > 100 µM |
| CSC(=N/C=C/c1ccccc1)SC | > 100 µM |
| c1ccc(C(C2=Nc3cccc4cccc(c34)N2)c2ccccc2)cc1 | 36.7 µM |
| O=C(OCc1ccccc1)N(CCCCN(CCCNC(=O)C(F)(F)F)C(=O)OCc1ccccc1)CCCNC(=O)C(F)(F)F | > 100 µM |
| Nc1ncc(Br)c(NCC2(CO)CCC2)n1 | > 100 µM |
| C=CCC1(O)CC(n2cc(C)c(=O)[nH]c2=O)OC1CO[Si](C)(C)C(C)(C)C (stereo not drawn) | 42.7 µM |
| NC(=O)C(=CNC(N)=S)C(N)=O | > 100 µM |

Tested on: SN12C renal
Test: NCI anticancer screen, dose series, 48 h

| Structure (SMILES) | TGI |
| --- | --- |
| CCCN(CCC)CCc1ccc(OC2=CCN(C)CC2)cc1 | > 100 µM |
| O=C1OCN(c2ccccc2)C12CCN(Cc1ccccc1)CC2 | > 100 µM |
| Cn1c2ccc([N+](=O)[O-])cc2c(=O)n1Cc1ccccc1F | > 100 µM |
| Cn1c(=O)c2c3ccccc3n(C)c2n(C)c1=O | > 100 µM |
| CN(Cc1cnc2nc(N)nc(N)c2n1)c1ccc(C(=O)NCCS(=O)(=O)O)cc1 | > 100 µM |
| COc1cc(NC(C)c2ccc3c(c2)OCCO3)cc(OC)c1OC (stereo not drawn) | > 100 µM |
| Cc1cccc2oc3c(CC(=O)O)cccc3c(=O)c12 | > 100 µM |
| O=c1c2cccnc2n2n1Cc1ccccc1C2 | > 100 µM |
| S=c1nc2sc3c(c2c(Nc2ccc(Cl)cc2)[nH]1)CCCC3 | > 100 µM |
| CSC1=C(C#N)C(=S)N=C(N)C1C(=O)Nc1ccc(C)cc1 (stereo not drawn) | > 100 µM |
| O=c1ccn([C@@H]2C[C@H]2CO)c(=O)[nH]1 | > 100 µM |
| C=C(C)[C@@H]1CCC2=C[C@@H](OC2=O)[C@@H](C(=C)C)C2=CC(C(=O)O)=C(C1)O2 | > 100 µM |
| CSC(=N/C=C/c1ccccc1)SC | > 100 µM |
| c1ccc(C(C2=Nc3cccc4cccc(c34)N2)c2ccccc2)cc1 | 30.2 µM |
| O=C(OCc1ccccc1)N(CCCCN(CCCNC(=O)C(F)(F)F)C(=O)OCc1ccccc1)CCCNC(=O)C(F)(F)F | > 100 µM |
| Nc1ncc(Br)c(NCC2(CO)CCC2)n1 | > 100 µM |
| C=CCC1(O)CC(n2cc(C)c(=O)[nH]c2=O)OC1CO[Si](C)(C)C(C)(C)C (stereo not drawn) | > 100 µM |
| NC(=O)C(=CNC(N)=S)C(N)=O | > 100 µM |
